# Publication PMC9502870
# Experiment: Intramolecular Nicholas reaction: C-O or C-N bond formation between OH/NHR nucleophile and Co2(CO)6-stabilised propargyl cation (from propargylic OMe), BF3·Et2O 1.3-8 equiv, 0 °C to rt
# Details: the molecule shown is the open-chain precursor, 10-membered ring, DCM, 1.0 mM, 25.0 °C
smiles,measurement,setting,value
COCC#Cc1sc2ccccc2c1C#CCCNC(=O)c1ccccc1 [17b (no macrocycle; pyrroline 19 formed)],"ring closure, isolated yield",2.0 h,0%
COCC#Cc1sc2ccccc2c1C#CCCNS(=O)(=O)c1ccc(C)cc1 [NHTs Co-complex -> 13c (ref 42)],"ring closure, isolated yield",,76%
COCC#Cc1sc2ccccc2c1C#CCCNCc1ccccc1 [17a -> 18 (BF3·Et2O)],"ring closure, isolated yield",20.0 h,4%
COCC#Cc1sc2ccccc2c1C#CCCNS(=O)(=O)c1ccccc1[N+](=O)[O-] [12a -> 13a],"ring closure, isolated yield",1.0 h,46%
C#CCCCC(=O)Nc1ccc(S(=O)(=O)NCCC#Cc2c(C#CCOC)sc3ccccc23)cc1 [12c -> 13b],"ring closure, isolated yield",1.0 h,63%
"COCC#Cc1sc2ccccc2c1C#CCCNS(=O)(=O)c1ccc(N)cc1 [12b (free NH2, no cyclization)]","ring closure, isolated yield",,0%
COCC#Cc1sc2ccccc2c1C#CCC(O)CC(=O)OC (stereo not shown) [4 -> 5],"ring closure, isolated yield",1.0 h,51%
